Measured values from PubChem BioAssay (NCI).
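96-well plates; 48 h exposure; 5 concentrations. Endpoints by linear interpolation between flanking doses. Not reached: highest tested concentration assigned. Definition used: TGI = concentration required for complete inhibition of growth.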

How the values were obtained:
Assay in all cases: NCI-60 cell line screen, 48 h
[1] = system: 786-0 renal
[2] = system: A498 renal
[3] = system: A549 NSCLC
[4] = system: ACHN renal
[5] = system: BT-549 breast
[6] = system: CAKI-1 renal
[7] = system: CCRF-CEM leukemia
[8] = system: COLO 205 colon
[9] = system: DU-145 prostate
[10] = system: EKVX NSCLC
[11] = system: HCC-2998 colon
[12] = system: HCT-116 colon
[13] = system: HCT-15 colon
[14] = system: HL-60(TB) leukemia
[15] = system: HOP-62 NSCLC
[16] = system: HOP-92 NSCLC
[17] = system: HS 578T breast
[18] = system: HT29 colon
[19] = system: IGROV1 ovarian
[20] = system: K-562 leukemia
[21] = system: KM12 colon
[22] = system: LOX IMVI melanoma
[23] = system: M14 melanoma
[24] = system: MALME-3M melanoma
[25] = system: MCF7 breast
[26] = system: MDA-MB-231 breast
[27] = system: MDA-MB-435
[28] = system: MDA-N
[29] = system: MOLT-4 leukemia
[30] = system: NCI-H226 lung
[31] = system: NCI-H23 lung
[32] = system: NCI-H522 lung
[33] = system: NCI/ADR-RES ovarian
[34] = system: OVCAR-3 ovarian
[35] = system: OVCAR-4 ovarian
[36] = system: OVCAR-5 ovarian
[37] = system: OVCAR-8 ovarian
[38] = system: PC-3 prostate
[39] = system: RPMI-8226 leukemia
[40] = system: SF-268 CNS
[41] = system: SF-295 CNS
[42] = system: SF-539 CNS
[43] = system: SK-MEL-2 melanoma
[44] = system: SK-MEL-5 melanoma
[45] = system: SK-OV-3 ovarian
[46] = system: SN12C renal
[47] = system: SNB-19 CNS
[48] = system: SNB-75 CNS
[49] = system: SR leukemia
[50] = system: SW-620 colon
[51] = system: T-47D breast
[52] = system: TK-10 renal
[53] = system: U251 CNS
[54] = system: UACC-257 melanoma
[55] = system: UACC-62 melanoma
[56] = system: UO-31 renal
[57] = system: DLD-1 colon
[58] = system: DMS 114 small cell lung
[59] = system: HOP-18 NSCLC
[60] = system: KM20L2 colon
[61] = system: LXFL 529 NSCLC
[62] = system: M19-MEL melanoma
[63] = system: NCI-H460 lung
[64] = system: RXF 393 renal
[65] = system: SK-MEL-28 melanoma
[66] = system: SNB-78 CNS

Work on `O=C1NCCN1/N=C/c1c(Cl)n(-c2ccccc2)c2ccccc12` yielded a TGI [1] of 77 µM, a TGI [2] of 45.8 µM and a TGI [3] of over 100 µM. It also gave a TGI [4] of 62 µM, a TGI [5] of 35.9 µM and a TGI [6] of 51.7 µM. It also gave a TGI [7] of over 100 µM, a TGI [8] of 40.5 µM and a TGI [9] of 48.4 µM. For the same compound, the TGI [10] was 91.5 µM, the TGI [11] was 36.2 µM and the TGI [12] was 45.6 µM. The TGI [13] was 39.9 µM, the TGI [14] was over 100 µM and the TGI [15] was over 100 µM. The TGI [16] was 49.7 µM, the TGI [17] was 43.8 µM and the TGI [18] was 35.3 µM. For the same compound, the TGI [19] was 41.7 µM, the TGI [20] was 68.1 µM and the TGI [21] was 34.2 µM. The TGI [22] was 38.9 µM, the TGI [23] was 36.8 µM and the TGI [24] was 42.7 µM. The TGI [25] was 67.3 µM, the TGI [26] was 44.1 µM and the TGI [27] was 33.1 µM. The TGI [28] was 21.6 µM, the TGI [29] was over 100 µM and the TGI [30] was 54 µM. The TGI [31] was 44.8 µM, the TGI [32] was 44.4 µM and the TGI [33] was 49.6 µM. The TGI [34] was over 100 µM, the TGI [35] was 76.2 µM and the TGI [36] was over 100 µM. It also gave a TGI [37] of 44.8 µM, a TGI [38] of 98.8 µM and a TGI [39] of 52.8 µM. The TGI [40] was 59 µM, the TGI [41] was over 100 µM and the TGI [42] was 33.7 µM. It also gave a TGI [43] of 66.4 µM, a TGI [44] of 29.3 µM and a TGI [45] of over 100 µM. For the same compound, the TGI [46] was 40.2 µM, the TGI [47] was 56.9 µM and the TGI [48] was 55 µM. For the same compound, the TGI [49] was 85.7 µM, the TGI [50] was 53.4 µM and the TGI [51] was 41 µM. It also gave a TGI [52] of 43.6 µM, a TGI [53] of 58.3 µM and a TGI [54] of 58.5 µM. For the same compound, the TGI [55] was 41.5 µM and the TGI [56] was 46.3 µM.

For `COc1cc2c(c(OC)c1OC)-c1ccc(OC)c(=O)cc1C(NC(=O)c1ccc(N=[N+]=[N-])cc1)CC2` (centres undefined), the TGI [1] was over 100 µM, the TGI [2] was 0.0847 µM and the TGI [3] was over 100 µM. The TGI [4] was over 100 µM, the TGI [5] was over 100 µM and the TGI [6] was 0.243 µM. The TGI [7] was over 24.5 µM, the TGI [8] was 0.0627 µM and the TGI [57] was over 100 µM. It also gave a TGI [58] of 0.0656 µM, a TGI [9] of 0.439 µM and a TGI [10] of over 100 µM. The TGI [11] was 0.0513 µM, the TGI [12] was 18.2 µM and the TGI [13] was 0.561 µM. For the same compound, the TGI [14] was 0.441 µM, the TGI [59] was over 100 µM and the TGI [15] was over 95.1 µM. The TGI [16] was 18.9 µM, the TGI [17] was over 100 µM and the TGI [18] was 0.208 µM. For the same compound, the TGI [19] was over 100 µM, the TGI [20] was over 39.2 µM and the TGI [21] was 0.0786 µM. It also gave a TGI [60] of 0.0351 µM, a TGI [22] of 24.9 µM and a TGI [61] of over 47.2 µM. For the same compound, the TGI [23] was 31.2 µM, the TGI [62] was over 73.2 µM and the TGI [24] was over 100 µM. It also gave a TGI [25] of over 100 µM, a TGI [26] of 12.5 µM and a TGI [27] of 0.0473 µM. It also gave a TGI [29] of 9.82 µM, a TGI [30] of 3.78 µM and a TGI [31] of over 100 µM. The TGI [63] was 0.0613 µM, the TGI [32] was 0.0387 µM and the TGI [34] was 0.0555 µM. It also gave a TGI [35] of over 100 µM, a TGI [36] of over 100 µM and a TGI [37] of 1.02 µM. It also gave a TGI [39] of 4.41 µM, a TGI [64] of 0.061 µM and a TGI [40] of over 100 µM. It also gave a TGI [41] of 0.0582 µM, a TGI [42] of 0.0611 µM and a TGI [65] of over 100 µM. For the same compound, the TGI [44] was 1.95 µM, the TGI [46] was over 41.9 µM and the TGI [47] was over 100 µM. It also gave a TGI [48] of over 90.8 µM, a TGI [66] of over 100 µM and a TGI [49] of over 100 µM. The TGI [50] was over 100 µM, the TGI [51] was over 100 µM and the TGI [52] was over 100 µM. The TGI [53] was 4 µM, the TGI [54] was over 100 µM and the TGI [55] was 31.1 µM. It also gave a TGI [56] of over 95.7 µM.

`CCOC(=O)c1nc2c(nc1C(=O)OCC)C(=O)c1ccccc1C2=O` gave a TGI [1] of 6.33 µM, a TGI [2] of 4.38 µM and a TGI [3] of 9.47 µM. It also gave a TGI [4] of 2.02 µM, a TGI [5] of 2.76 µM and a TGI [6] of 3.26 µM. It also gave a TGI [7] of over 100 µM, a TGI [8] of 4.36 µM and a TGI [9] of 2.48 µM. The TGI [10] was 3.5 µM, the TGI [11] was 2.97 µM and the TGI [12] was 4.25 µM. It also gave a TGI [13] of over 34.4 µM, a TGI [14] of 1.55 µM and a TGI [15] of 3.78 µM. For the same compound, the TGI [16] was 33.6 µM, the TGI [17] was 0.766 µM and the TGI [18] was 9.06 µM. The TGI [19] was 23.8 µM, the TGI [20] was 4.46 µM and the TGI [21] was 14.7 µM. The TGI [23] was 1.55 µM, the TGI [24] was 0.362 µM and the TGI [25] was 1.17 µM. The TGI [26] was 8.41 µM, the TGI [27] was 0.804 µM and the TGI [28] was 0.796 µM. The TGI [29] was 6.31 µM, the TGI [30] was 1.5 µM and the TGI [63] was 3.73 µM. It also gave a TGI [32] of 4.23 µM, a TGI [33] of over 35.1 µM and a TGI [34] of 2.81 µM. It also gave a TGI [35] of 1.95 µM, a TGI [36] of 2.24 µM and a TGI [37] of 6.56 µM. For the same compound, the TGI [38] was 11.2 µM, the TGI [39] was 6.87 µM and the TGI [64] was 2.81 µM. It also gave a TGI [40] of 7.62 µM, a TGI [41] of 1.55 µM and a TGI [42] of 1.71 µM. For the same compound, the TGI [43] was 1.5 µM, the TGI [65] was 3.01 µM and the TGI [44] was 2.19 µM. It also gave a TGI [45] of 5.97 µM, a TGI [46] of 0.4 µM and a TGI [47] of 3.59 µM. The TGI [48] was 2.12 µM, the TGI [49] was 0.68 µM and the TGI [50] was 3.77 µM. It also gave a TGI [51] of over 62.8 µM, a TGI [52] of 8.83 µM and a TGI [53] of 2.74 µM. It also gave a TGI [54] of 1.28 µM, a TGI [55] of 0.956 µM and a TGI [56] of 1.18 µM.
